Experimental data taken from ChEMBL document CHEMBL1141004, “N-((8-hydroxy-5-substituted-quinolin-7-yl)(phenyl)methyl)-2-phenyloxy/amino-acetamide inhibitors of ADAMTS-5 (Aggrecanase-2)” (Bioorg Med Chem Lett, 2008).
pIC50: −log10 of the molar value.

Key:
[1] = Metabolic stability in rat liver microsomes assessed as half life; type: ADME, Microsome
Cytochrome P450 3A4 = Cytochrome P450 3A4 (Homo sapiens, UniProt P08684); test: Inhibition of CYP3A4 at 30 uM by FRET assay; type: ADME
[2] = target: T1, A disintegrin and metalloproteinase with thrombospondin motifs 4 (Homo sapiens, UniProt O75173); test: Inhibition of ADAMTS4 by FRET assay
T1 sequence (O75173 whole entry): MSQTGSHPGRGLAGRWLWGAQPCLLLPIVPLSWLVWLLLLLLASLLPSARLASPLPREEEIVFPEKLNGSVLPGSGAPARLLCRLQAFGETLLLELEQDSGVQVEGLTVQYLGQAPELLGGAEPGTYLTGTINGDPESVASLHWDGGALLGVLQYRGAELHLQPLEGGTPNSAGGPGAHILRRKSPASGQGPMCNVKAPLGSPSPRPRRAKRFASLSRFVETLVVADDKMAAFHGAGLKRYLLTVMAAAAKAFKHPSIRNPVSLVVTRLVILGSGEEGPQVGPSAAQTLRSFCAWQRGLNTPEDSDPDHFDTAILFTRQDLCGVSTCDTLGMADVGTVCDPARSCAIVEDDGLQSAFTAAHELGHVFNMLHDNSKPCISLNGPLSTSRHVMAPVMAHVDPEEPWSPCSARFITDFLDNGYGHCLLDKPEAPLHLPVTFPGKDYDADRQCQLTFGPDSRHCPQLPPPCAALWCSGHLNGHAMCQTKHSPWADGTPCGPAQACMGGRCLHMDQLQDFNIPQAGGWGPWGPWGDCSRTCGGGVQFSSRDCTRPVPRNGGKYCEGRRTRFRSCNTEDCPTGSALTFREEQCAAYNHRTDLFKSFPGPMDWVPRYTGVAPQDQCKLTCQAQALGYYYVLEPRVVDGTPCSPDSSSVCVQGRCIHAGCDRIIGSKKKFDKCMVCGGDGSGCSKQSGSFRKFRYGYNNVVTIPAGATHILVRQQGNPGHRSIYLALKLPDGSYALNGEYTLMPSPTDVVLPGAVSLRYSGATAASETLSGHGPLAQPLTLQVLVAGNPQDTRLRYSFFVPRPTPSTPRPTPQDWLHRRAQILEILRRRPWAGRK

Collagenase 3 = Collagenase 3 (Homo sapiens, UniProt P45452); test: Inhibition of MMP13 by FRET assay
[3] = target: Macrophage metalloelastase (Homo sapiens) (UniProt P39900); test: Inhibition of MMP12 at […] by FRET assay
Sequence of Macrophage metalloelastase (Homo sapiens) (P39900 106-470 limits assumed): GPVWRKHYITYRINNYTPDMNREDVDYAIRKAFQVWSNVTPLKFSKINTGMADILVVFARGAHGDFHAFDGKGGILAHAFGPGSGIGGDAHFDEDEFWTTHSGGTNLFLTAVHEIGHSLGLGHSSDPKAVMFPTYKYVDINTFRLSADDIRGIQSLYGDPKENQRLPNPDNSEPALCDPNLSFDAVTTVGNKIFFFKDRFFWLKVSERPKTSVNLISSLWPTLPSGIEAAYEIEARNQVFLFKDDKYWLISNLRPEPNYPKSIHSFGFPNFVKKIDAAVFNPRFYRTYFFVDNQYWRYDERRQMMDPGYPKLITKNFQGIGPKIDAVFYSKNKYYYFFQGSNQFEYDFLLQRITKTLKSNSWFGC

Sequence of Cytochrome P450 3A4 (P08684 whole entry): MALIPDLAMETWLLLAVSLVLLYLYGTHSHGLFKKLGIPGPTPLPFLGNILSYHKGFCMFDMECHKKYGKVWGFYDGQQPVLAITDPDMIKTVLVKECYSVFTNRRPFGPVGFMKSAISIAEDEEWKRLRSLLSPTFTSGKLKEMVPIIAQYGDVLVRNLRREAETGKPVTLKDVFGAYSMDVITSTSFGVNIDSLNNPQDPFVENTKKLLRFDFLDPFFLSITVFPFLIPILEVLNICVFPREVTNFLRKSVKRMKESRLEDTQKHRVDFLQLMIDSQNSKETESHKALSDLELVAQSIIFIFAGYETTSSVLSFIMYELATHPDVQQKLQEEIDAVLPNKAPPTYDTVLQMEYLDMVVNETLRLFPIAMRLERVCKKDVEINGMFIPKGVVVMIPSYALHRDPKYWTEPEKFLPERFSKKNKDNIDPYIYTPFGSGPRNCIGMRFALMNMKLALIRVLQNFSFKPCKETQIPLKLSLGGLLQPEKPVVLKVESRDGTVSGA

Compound | inhibition (INH) (Cytochrome P450 3A4) [%] | further results
Cc1ccc(C(NC(=O)CN(C)Cc2ccccc2)c2cc(Cl)c3cccnc3c2O)cc1 (configuration not stated) | 30 | half-life [1]: 16 min
COc1ccc(OCC(=O)NC(c2ccc(OC)cc2)c2cc(Cl)c3cccnc3c2O)cc1 (configuration not stated) | 74 | pIC50 [2]: < 4.30; pIC50 (Collagenase 3): < 3.70; inhibition [3]: 37%
Cc1cc(NCC(=O)NC(c2ccccc2Cl)c2cc(Cl)c3cccnc3c2O)ccc1Cl (configuration not stated) | 11 | half-life [1]: 8 min
CN(CC(=O)NC(c1cccc(F)c1)c1cc(Cl)c2cccnc2c1O)c1ccccc1 (configuration not stated) | 41 | –
CC(C)(C)c1ccc(OCC(=O)NC(c2ccccc2Cl)c2cc(Cl)c3cccnc3c2O)cc1 (configuration not stated) | 10 | –
Cc1ccc(C(NC(=O)CNc2ccc(C#N)cc2)c2cc(Cl)c3cccnc3c2O)cc1 (configuration not stated) | 29 | –
COc1ccc(C(NC(=O)COc2ccc(Oc3ccccc3)cc2)c2cc(Cl)c3cccnc3c2O)cc1 (configuration not stated) | 21 | –
Cc1ccc(C(NC(=O)CNc2ccc(Cl)c(C)c2)c2cc(Cl)c3cccnc3c2O)cc1 (configuration not stated) | 12 | –
O=C(COc1ccccc1)NC(c1cccc([N+](=O)[O-])c1)c1cc(Cl)c2cccnc2c1O (configuration not stated) | 26 | half-life [1]: 6 min; pIC50 [2]: 5.72; pIC50 (Collagenase 3): < 3.70; inhibition [3]: 45%
Cc1ccc(C(NC(=O)COCc2ccccc2)c2cc(Cl)c3cccnc3c2O)cc1 (configuration not stated) | 45 | –
CC(=O)c1ccc(NCC(=O)NC(c2ccc(C)cc2)c2cc(Cl)c3cccnc3c2O)cc1 (configuration not stated) | 45 | half-life [1]: 4 min
Cc1ccc(OCC(=O)NC(c2ccccc2)c2cc(Cl)c3cccnc3c2O)cc1 (configuration not stated) | 69 | –
O=C(COc1ccccc1)NC(c1ccc([N+](=O)[O-])cc1)c1cc(Cl)c2cccnc2c1O (configuration not stated) | 13 | –
O=C(COc1ccccc1)NC(c1cccc(F)c1)c1cc(Cl)c2cccnc2c1O (configuration not stated) | 57 | –
O=C(COc1ccccc1)NC(c1ccccc1)c1ccc2cccnc2c1O (configuration not stated) | 56 | –
Cc1ccccc1C(NC(=O)COc1ccccc1)c1cc(Cl)c2cccnc2c1O (configuration not stated) | 10 | –
CN(CC(=O)NC(c1cccc([N+](=O)[O-])c1)c1cc(Cl)c2cccnc2c1O)Cc1ccccc1 (configuration not stated) | 20 | –
CC(=O)c1ccc(OCC(=O)NC(c2cccc([N+](=O)[O-])c2)c2cc(Cl)c3cccnc3c2O)cc1 (configuration not stated) | 18 | –
O=C(COc1ccccc1)NC(c1ccccc1)c1cc([N+](=O)[O-])c2cccnc2c1O (configuration not stated) | 20 | –
O=C(COc1ccccc1)NC(c1ccccc1Cl)c1cc(Br)c2cccnc2c1O (configuration not stated) | 33 | –

Compound | inhibition (INH) (Cytochrome P450 3A4) [%] | further results
O=C(CNCc1ccccc1)NC(c1ccccc1Cl)c1cc(Cl)c2cccnc2c1O (configuration not stated) | 36 | –
Cc1cc(OCC(=O)NC(c2ccccc2Cl)c2cc(Cl)c3cccnc3c2O)ccc1Cl (configuration not stated) | 30 | –
O=C(COc1ccccc1)NC(c1ccccc1F)c1cc(Cl)c2cccnc2c1O (configuration not stated) | 24 | –
O=C(COc1ccccc1)NC(c1ccccc1[N+](=O)[O-])c1cc(Cl)c2cccnc2c1O (configuration not stated) | 38 | half-life [1]: 5 min
O=C(COc1ccc(Cl)cc1)NC(c1ccccc1)c1cc(Cl)c2cccnc2c1O (configuration not stated) | 2 | –
N#Cc1ccccc1C(NC(=O)COc1ccccc1)c1cc(Cl)c2cccnc2c1O (configuration not stated) | 26 | –
CC(=O)c1ccc(NCC(=O)NC(c2cccc([N+](=O)[O-])c2)c2cc(Cl)c3cccnc3c2O)cc1 (configuration not stated) | 27 | –
Cc1ccc(C(NC(=O)COc2ccccc2)c2cc(Cl)c3cccnc3c2O)cc1 (configuration not stated) | 45 | –
COc1ccc(C(NC(=O)COc2ccc(NC(C)=O)cc2)c2cc(Cl)c3cccnc3c2O)cc1 (configuration not stated) | 37 | –
CC(=O)Nc1ccc(OCC(=O)NC(c2ccccc2Cl)c2cc(Cl)c3cccnc3c2O)cc1 (configuration not stated) | 4 | –
O=C(COc1cc(Cl)cc(Cl)c1)NC(c1cccc([N+](=O)[O-])c1)c1cc(Cl)c2cccnc2c1O (configuration not stated) | 20 | –
O=C(COc1ccccc1)NC(c1cccc([N+](=O)[O-])c1)c1cc(Br)c2cccnc2c1O (configuration not stated) | 38 | –
Cc1cc(NCC(=O)NC(c2cccc(F)c2)c2cc(Cl)c3cccnc3c2O)ccc1Cl (configuration not stated) | 14 | –
O=C(CNCc1ccccc1)NC(c1cccc(F)c1)c1cc(Cl)c2cccnc2c1O (configuration not stated) | 32 | –
COc1ccc(C(NC(=O)COc2ccccc2)c2cc(Cl)c3cccnc3c2O)cc1 (configuration not stated) | 54 | –
Cc1cc(C(NC(=O)COc2ccccc2)c2ccccc2Cl)c(O)c2ncccc12 (configuration not stated) | 55 | –
CN(CC(=O)NC(c1ccccc1Cl)c1cc(Cl)c2cccnc2c1O)c1ccccc1 (configuration not stated) | 34 | –
COc1ccc(C(NC(=O)COc2cccc(N(C)C)c2)c2cc(Cl)c3cccnc3c2O)cc1 (configuration not stated) | 56 | –
COc1ccc(C(NC(=O)COc2cccnc2)c2cc(Cl)c3cccnc3c2O)cc1 (configuration not stated) | 33 | half-life [1]: 16 min
Cc1ccc(C(NC(=O)CN(C)c2ccccc2)c2cc(Cl)c3cccnc3c2O)cc1 (configuration not stated) | 20 | half-life [1]: 6 min

Compound | inhibition (INH) (Cytochrome P450 3A4) [%] | further results
CN(CC(=O)NC(c1ccccc1Cl)c1cc(Cl)c2cccnc2c1O)Cc1ccccc1 (configuration not stated) | 16 | half-life [1]: 5 min
CN(CC(=O)NC(c1cccc(F)c1)c1cc(Cl)c2cccnc2c1O)Cc1ccccc1 (configuration not stated) | 32 | half-life [1]: 16 min
O=C(COc1ccccc1)NC(c1ccccc1)c1cc(F)c2cccnc2c1O (configuration not stated) | 22 | –
O=C(COCc1ccccc1)NC(c1cccc(F)c1)c1cc(Cl)c2cccnc2c1O (configuration not stated) | 46 | half-life [1]: 24 min
CN(C)c1cccc(OCC(=O)NC(c2ccccc2Cl)c2cc(Cl)c3cccnc3c2O)c1 (configuration not stated) | 38 | –
COc1ccc(C(NC(=O)COc2ccc(C)cc2)c2cc(Cl)c3cccnc3c2O)cc1 (configuration not stated) | 78 | –
O=C(COc1ccccc1)NC(c1ccccc1Cl)c1cc([N+](=O)[O-])c2cccnc2c1O (configuration not stated) | 35 | –
O=C(COc1ccccc1)NC(c1ccccc1Cl)c1cc(Cl)c2cccnc2c1O (configuration not stated) | 43 | pIC50 [2]: 5.62; pIC50 (Collagenase 3): < 4.17; inhibition [3]: 50%
Cc1cc(NCC(=O)NC(c2cccc([N+](=O)[O-])c2)c2cc(Cl)c3cccnc3c2O)ccc1Cl (configuration not stated) | 17 | –
Cc1ccc(C(NC(=O)CNc2cccc(N(C)C)c2)c2cc(Cl)c3cccnc3c2O)cc1 (configuration not stated) | 37 | –
O=C(COc1ccccc1)NC(c1ccccc1)c1cc(Cl)c2cccnc2c1O (configuration not stated) | 5 | –
O=C(COc1cccnc1)NC(c1cccc([N+](=O)[O-])c1)c1cc(Cl)c2cccnc2c1O (configuration not stated) | 67 | –
CC(=O)Nc1ccc(NCC(=O)NC(c2cccc([N+](=O)[O-])c2)c2cc(Cl)c3cccnc3c2O)cc1 (configuration not stated) | 8 | half-life [1]: 30 min
O=C(COc1ccccc1)NC(c1ccccc1C(F)(F)F)c1cc(Cl)c2cccnc2c1O (configuration not stated) | 37 | –
CC(=O)Nc1ccc(OCC(=O)NC(c2cccc(F)c2)c2cc(Cl)c3cccnc3c2O)cc1 (configuration not stated) | 31 | –
Cc1cc(C(NC(=O)COc2ccccc2)c2cccc([N+](=O)[O-])c2)c(O)c2ncccc12 (configuration not stated) | 33 | half-life [1]: 6 min
CN(C)c1cccc(OCC(=O)NC(c2cccc(F)c2)c2cc(Cl)c3cccnc3c2O)c1 (configuration not stated) | 53 | –
O=C(COc1cccnc1)NC(c1cccc(F)c1)c1cc(Cl)c2cccnc2c1O (configuration not stated) | 35 | –
Cc1ccc(C(NC(=O)CNCc2ccccc2)c2cc(Cl)c3cccnc3c2O)cc1 (configuration not stated) | 29 | half-life [1]: 10 min
O=C(COc1ccccc1)NC(c1ccc(Cl)cc1)c1cc(Cl)c2cccnc2c1O (configuration not stated) | 38 | –
